Values of other authors, collected in patent US20240197726A1, “NOVEL TETRAHYDROISOQUINOLINE ALKALOID COMPOUND CONTAINING MACROCYCLE” (THE UNIVERSITY OF TOKYO, priority 2021, published 2024).
Like-named read-outs stand apart in the source and are kept apart here.

Experiments:
Details in all cases: cited from earlier work
[1] = test system: MDA-MB-231 breast cancer cells
[2] = test system: A549 lung cancer cells
[3] = test system: HCT-116 colorectal cancer cells
[4] = test system: MCF-7 breast cancer cells
[5] = test system: HT-29 colorectal cancer cells
[6] = test system: NCI-H23 lung cancer cells
[7] = test system: NCI-H460 lung cancer cells

In the case of `COc1c(C)cc2c(c1C)[C@H]1N(C)[C@@](C)(C2)C(C)N2C1(C)[C@@H]1CCC3(CCCC4=C3Cc3ccc(C)cc34)C(=O)OC[C@@]2(C)c2c3c(c(C)c(C)c21)OCO3` (some centres unmarked) [drawing 163], the GI50 ([1]; MDA-MB-231 breast cancer cells, comparative value based on the literature, read-out: antitumor activity GI50 value: 50% growth inhibitory concentration) is listed as 3.4 nM, the GI50 ([2]; A549 lung cancer cells, comparative value based on the literature, read-out: antitumor activity GI50 value: 50% growth inhibitory concentration) is listed as 1.3 nM and the GI50 ([3]; HCT-116 colorectal cancer cells, comparative value based on the literature, read-out: antitumor activity GI50 value: 50% growth inhibitory concentration) is listed as 6.4 nM. For the same molecule, the GI50 ([4]; MCF-7 breast cancer cells, comparative value based on the literature, read-out: antitumor activity GI50 value: 50% growth inhibitory concentration) was 1.7 nM, the GI50 ([5]; HT-29 colorectal cancer cells, comparative value based on the literature, read-out: antitumor activity GI50 value: 50% growth inhibitory concentration) was 2.4 nM and the GI50 ([6]; NCl-H23 lung cancer cells, comparative value based on the literature, read-out: antitumor activity GI50 value: 50% growth inhibitory concentration) was 5.3 nM. The GI50 ([7]; NCl--H460 lung cancer cells, comparative value based on the literature, read-out: antitumor activity GI50 value: 50% growth inhibitory concentration) was 1.5 nM.

For `COc1ccc2[nH]c3c(c2c1)CCN[C@]31CS[C@@H]2c3c(OC(C)=O)c(C)c4c(c3[C@H](COC1=O)N1[C@@H]2[C@H]2c3c(cc(C)c(OC)c3O)C[C@@H]([C@@H]1O)N2C)OCO4` [lurbinectedin, reference compound], the GI50 ([1]; MDA-MB-231, reference values from literature (Leal et al. Br. J Pharmacol, 2010), read-out: GI50 value: 50% growth inhibitory concentration) is given as 3.4 nM, the GI50 ([2]; A549, reference values from literature (Leal et al. Br. J Pharmacol, 2010), read-out: GI50 value: 50% growth inhibitory concentration) is given as 1.3 nM and the GI50 ([3]; HCT-116, reference values from literature (Leal et al. Br. J Pharmacol, 2010), read-out: GI50 value: 50% growth inhibitory concentration) is given as 6.4 nM. For the same molecule, the GI50 ([4]; MCF-7, reference values from literature (Leal et al. Br. J Pharmacol, 2010), read-out: GI50 value: 50% growth inhibitory concentration) was 1.7 nM, the GI50 ([5]; HT-29, reference values from literature (Leal et al. Br. J Pharmacol, 2010), read-out: GI50 value: 50% growth inhibitory concentration) was 2.4 nM and the GI50 ([6]; NCI-H23, reference values from literature (Leal et al. Br. J Pharmacol, 2010), read-out: GI50 value: 50% growth inhibitory concentration) was 5.3 nM. For the same molecule, the GI50 ([7]; NCI-H460, reference values from literature (Leal et al. Br. J Pharmacol, 2010), read-out: GI50 value: 50% growth inhibitory concentration) was 1.5 nM.
